# Measurements taken from patent publication US8168628B2, “Conjugated psychotropic drugs and uses thereof” (Ramot at Tel-Aviv University Ltd., priority 2001, dated 2012).
# Structures can show the parent of a compound that is named as a salt. Where two headings read alike, the source gives them in different places.
# Tests used:
# [1] = tested on: rats; test: D-Amphetamine-induced hyperactivity in rats; assay type: in vivo, rat; conditions: GABA alone, 5 mg/kg i.p. (FIGS. 22-25)
# Description: D-Amphetamine-induced hyperactivity in rats: The efficacy of the chemical conjugates of the present invention was studied using the D-amphetamine-induced hyperactivity and motility model, which is known as one of the most established animal models for schizophrenia.
# Naïve Wistar male rats were placed in individual boxes. In each experiment 4 rats were studied. Perphenazine or equimolar doses of its chemical conjugate AN-168 were administered intraperitoneally (ip) to the rats 30 minutes prior to intraperitoneal administration of amphetamine (2.5 mg/kg), or 90 minutes prior to oral administration of amphetamine (2.5 mg/kg). The animals locomotor activity was assessed using two parameters: climbing attempts of the animal on the barrel walls (as big movements) and head movement of the animal (as small movements). Assessment was recorded every 15 minutes for two hours. Each animal was tested at each time point for 120 seconds.
# The climbing behavior of the rats in each group was measured as described hereinabove.
# [2] = tested on: B16; test: Proliferation test, B16 melanoma cells; assay type: cell-based, murine; conditions: Mus musculus, B16; linear regression of survival percentage
# Description: (§1) Cell lines: Human prostate carcinoma (PC-3), human colon carcinoma (HT-29), murine melanoma (B-16) and its drug resistant subclone (B-16 MDR), mouse fibroblasts (3T3), myeloid leukemia (HL 60) and its drug resistant subclone (HL 60 MX2), endometrium cell line (MES SA) and its drug resistant subclone (MES DX5), jurkat T lymphoma and monocyte leukemia (U-937), were used in this study.
# (§2) Proliferation of cancer and normal cells: Proliferation was measured by neutral red assay or by a fluorometric assay quantitating DNA content. In the neutral red assay, the neutral red is absorbed by lysosomes, thus causing coloring of living cells. Quantitative analysis is performed by colorimetric assay (ELISA reader at 550 nm). In the fluorometric assay, alamar blue is used as a redox indicator. Alamar blue fluorescence was measured at an excitation wavelength of 544 nm and an emission wavelength of […] (FLUOstar BMG Lab Technologies, Offenburg, Germany).
# (§3) The cells were sub-cultured and the tested compounds were added thereto in increasing concentrations. The IC50 values were determined by linear regression of the survival percentage of the cells.
# [3] = tested on: rats; test: Catalepsy in rats, “wall” test; conditions: i.p.; for time course of catalepsy: over a period of 7 hours (FIGS. 4a, 4b); for induced catalepsy, SAR studies: compared with perphenazine (FIG. 2)
# Description: (§4) Animals: Young adult male rats (150-230 grams) were purchased from Harlan (Israel). Animals were divided 2-5/cage and housed in controlled conditions in the animal room for a week prior to the experiments. The experiments were conducted with naive animals, in a double blind procedure. In each experiment various treatment groups (about 5-10 animals each) were tested.
# (§5) Catalepsy in rats: The manifestation of the extrapyramidal adverse effects induced by typical neuroleptics was evaluated by the appearance of stereotypic cataleptic behavior in rats following the neuroleptic treatment. Catalepsy was determined by two methods: (i) by measuring the time it took an animal hanging on a cage wall to move its hind legs and reach a flat surface (the “wall” test); and (ii) rats were placed on a flat surface with their anterior limbs leaning on a flat bar (5.5 cm height) resembling a piano playing position. Catalepsy was determined by the time it took an animal to descend and reach the flat surface (the “piano” test). The maximum time of follow up was 2 minutes and these measurements were performed hourly and individually for each animal. These tests provide an assessment of central dopamine (DA) blocking activity and are acceptable criteria for extrapyramidal symptoms induced by anti-psychotic drugs [10].
# (§6) A control animals group was treated with the vehicle (lactic acid) only.
# [4] = tested on: PC-3; test: Proliferation test, PC-3 cells; assay type: cell-based; conditions: Homo sapiens, linear regression of survival percentage
# Description: as §1, §2, §3
# [5] = tested on: prolactin; test: Prolactin blood level in rats (enzyme immunometric assay); assay type: in vivo, rat; conditions: i.p.; measured at 0, 60 and 120 min after treatment
# Description: Prolactin secretion: Typical neuroleptics induce hyperprolactinemia, which is frequently associated with gallactorehea and impaired gonadal and sexual function. The measurement of the circulatory plasma prolactin level was therefore used as a sensitive biochemical marker for the psychotropic activity of the known neuroleptics and the chemical conjugates of the present invention, following intraperitoneal or oral administration thereof. Thus, blood was collected from the punctured eye orbital of rats under ether anesthesia and the assay was performed using Millennia, rat prolactin enzyme immunometric assay-kit (DPC, USA).
# [6] = tested on: B16 MDR; test: Proliferation test, B16 MDR cells; assay type: cell-based, murine; conditions: Mus musculus; linear regression of survival percentage
# Description: as §1, §2, §3
# [7] = tested on: Normal rat fibroblasts; test: Proliferation test, normal rat fibroblasts; assay type: cell-based; conditions: Fibroblast, linear regression of survival percentage
# Description: The primary cultures of rat fibroblasts were obtained from neonatal rats using known procedures.
# as §2, §3
# [8] = tested on: HT-29; test: Proliferation test, HT-29 cells; assay type: cell-based; conditions: Homo sapiens, linear regression of survival percentage
# Description: as §1, §2, §3
# [9] = tested on: MES SA; test: Proliferation test, MES SA cells; assay type: cell-based; conditions: Homo sapiens, linear regression of survival percentage
# Description: as §1, §2, §3
# [10] = tested on: HL 60 MX2 (MDR); test: Proliferation test, HL 60 MX2 (MDR) cells; assay type: cell-based; conditions: Homo sapiens, HL60/MX2; linear regression of survival percentage
# Description: as §1, §2, §3
# [11] = tested on: rats; test: Behavioral criteria: sedation and mobility score in rats; conditions: i.p., 5 mg/kg perphenazine, 7.5 mg/kg fluphenazine or equimolar conjugate, score 0-3
# Description: The effect of the administration of the tested compound on animals behavior was measured by evaluating the degree of animal sedation and mobility following the treatment described hereinabove, using a score of from 0 to 3. A score of 0 represents active and mobile animals, 1 represents calm and mobile animals, 2 represents calm and immobile animals and 3 represents completely ataxic and non-alert animals.
# [12] = tested on: HL 60; test: Proliferation test, HL 60 cells; assay type: cell-based; conditions: Homo sapiens, linear regression of survival percentage
# Description: as §1, §2, §3
# [13] = tested on: U-937; test: Proliferation test, U-937 cells; assay type: cell-based; conditions: Homo sapiens, linear regression of survival percentage
# Description: as §1, §2, §3
# [14] = tested on: Jurkat T lymphoma cells; test: Proliferation / viability test, Jurkat T lymphoma cells; assay type: cell-based; conditions: Homo sapiens, linear regression of survival percentage, read-out: IC50, JURKAT
# Description: as §1, §2, §3
# [15] = tested on: MES SA DX5 (MDR); test: Proliferation test, MES SA DX5 (MDR) cells; assay type: cell-based; conditions: Homo sapiens, linear regression of survival percentage
# Description: as §1, §2, §3
# [16] = tested on: rats; conditions: male, rat, in vivo, ip
# Description: as §4, §5, §6
# [17] = tested on: 3T3; test: Proliferation test, 3T3 fibroblasts; assay type: cell-based; conditions: Mus musculus, NIH3T3; linear regression of survival percentage
# Description: as §1, §2, §3
# [18] = tested on: C6 rat glioma cells; test: Chemosensitization in C6 rat glioma cells; assay type: cell-based; conditions: Cisplatin 5-50 μM, neutral red (FIG. 17)
# Description: Chemosensitization: The chemosensitizing effect of perphenazine and its chemical conjugate AN 168 was measured in vitro. Various concentrations of perphenazine or AN 168 were co-administered together with a chemotherapeutic agent to either C6 rat glioma cells or to Jurkat T lymphoma cells. Cells viability and/or DNA fragmentation following treatment with either the chemotherapeutic agent, perphenazine, AN 168, a combination of the chemotherapeutic agent and perphenazine or a combination of a chemotherapeutic agent with AN 168 were measured as described hereinabove.
# [19] = tested on: C6 rat glioma cells; test: DNA fragmentation in C6 rat glioma cells (propidium iodide flow cytometry); assay type: cell-based; conditions: Cisplatin 30 μM; perphenazine 25 and 50 μM; AN 168 25, 50 μM (FIG. 18)
# Description: Apoptosis and DNA fragmentation: Fragmentation of cell nuclei was studied by flow cytometric analysis of propidium iodide-stained cells. This analysis was performed using a FACScan (Becton Dickinson, Mountain View, Calif.) equipped with an argon ion laser adjusted to an excitation wavelength of 480 nm and with a Doublet Discrimination Module (DDM). Lysis II (Becton Dickinson) software was used for data acquisition. Apoptotic nuclear changes were evaluated according to the criteria of Nicolletti et al..
# The DNA fragmentation was determined by the propidium iodide flow cytometric method described hereinabove.
# [20] = Stability upon prolonged storage (NMR); assay type: physicochemical; conditions: about 3 months storage; NMR spectroscopy
# [21] = tested on: normal and transformed cells; test: Proliferation tests, summary over the tested cell lines; assay type: cell-based; conditions: read-out: IC50 range, anti-proliferative activity
# Description: as §2, §3
# [22] = 5 mg/kg perphenazine, 7.5 mg/kg fluphenazine, equimolar conjugates, sum 0-420 min, normalized to parent drug (FIG. 3a)
# [23] = 5 mg/kg perphenazine and equimolar conjugates
smiles,measurement,setting,value
"NCCCC(=O)O [GABA, γ-aminobutyric acid, reference compound]",effect on amphetamine-induced climbing and head movement,[1],did not modify the effect of amphetamine
"O=C(CCCc1ccccc1)OCCN1CCN(CCCN2c3ccccc3Sc3ccc(Cl)cc32)CC1 [AN-130, Perphenazine 4-Phenylbutyrate]",IC50,[2],36.5 ± 8.1 µM
same,total catalepsy,"[3]; 5 mg/kg perphenazine and equimolar conjugates, sum of determinations at 0, 60, 120 min (FIG. 1a)",catalepsy was induced
same,IC50,[4],52.9 ± 28.7 µM
same,time at which prolactin blood level peaked,[5],60 min
same,IC50,[6],58 µM
same,IC50,[7],41.9 ± 16.8 µM
same,IC50,[8],17.3 ± 3.07 µM
"CCCC(=O)OCCN1CCN(CCCN2c3ccccc3Sc3ccc(C(F)(F)F)cc32)CC1 [AN-180, Fluphenazine Butyrate]",total catalepsy,[3]; [22],reduced catalepsy significantly
same,time course of catalepsy,[3],lower catalepsy
same,IC50,[9],12 µM
same,IC50,[10],18.8 µM
same,"sedation and mobility score, 30 min",[11],1
same,"sedation and mobility score, 60 min",[11],2
same,"sedation and mobility score, 90 min",[11],3
same,"sedation and mobility score, 120 min",[11],2
same,"sedation and mobility score, 180 min",[11],1
same,"sedation and mobility score, 240 min",[11],1
same,IC50,[12],19 µM
same,IC50,[13],12.2 µM
same,IC50,[14],10.4 µM
same,IC50,[15],12.7 µM
"CCCCC(=O)OCCN1CCN(CCCN2c3ccccc3Sc3ccc(C(F)(F)F)cc32)CC1 [AN-181, Fluphenazine Valerate]",IC50,[10],16.7 µM
same,IC50,[12],14.8 µM
"OCCN1CCN(CCCN2c3ccccc3Sc3ccc(C(F)(F)F)cc32)CC1 [Fluphenazine, fluphenazine, reference compound]",time course of catalepsy,[16],displayed catalepsy during the measured 7 hours
same,time at which prolactin blood level peaked,[5],60 min
"CCCCC(=O)OCCN1CCN(CCCN2c3ccccc3Sc3ccc(Cl)cc32)CC1 [AN-178, Perphenazine Valerate]","induced catalepsy, SAR studies",[3]; [23],significant reduction of the induced catalepsy
same,IC50,[17],18.6 µM
same,IC50,[8],11.5 µM
"N.N.[Cl][Pt][Cl] [Cisplatin, reference compound]","cells viability, Cisplatin alone",[18],completely resistant
same,DNA fragmentation,[19],no effect of DNA fragmentation
"NCCCC(=O)OCCN1CCN(CCCN2c3ccccc3Sc3ccc(C(F)(F)F)cc32)CC1 [AN-187, fluphenazine 4-Aminobutyrate Trihydrochloride]",stability upon prolonged storage,[20],does not tend to decompose upon a prolonged storage
same,total catalepsy,[3]; [22],reduced it considerably
same,catalepsy at the end of the 7-hours period,[3]; equimolar to 7.5 mg/kg fluphenazine (FIG. 4b),abolished at the end of the 7-hours period
same,time course of catalepsy,[3],lower catalepsy
same,time at which prolactin blood level peaked,[5],60 min
same,IC50,[9],14.4 µM
same,IC50,[10],17.1 µM
same,"sedation and mobility score, 30 min",[11],1
same,"sedation and mobility score, 60 min",[11],2
same,"sedation and mobility score, 90 min",[11],2
same,"sedation and mobility score, 120 min",[11],2
same,"sedation and mobility score, 180 min",[11],1
same,"sedation and mobility score, 240 min",[11],1
same,IC50,[12],18.6 µM
same,IC50,[13],18.9 µM
same,IC50,[14],10.3 µM
same,IC50,[15],9.47 µM
"O=C(O)CCCc1ccccc1 [PBA, 4-phenylbutyric acid]",IC50,[21],2000 to 12000 µM
"CCC(=O)OCCN1CCN(CCCN2c3ccccc3Sc3ccc(C(F)(F)F)cc32)CC1 [AN-179, Fluphenazine Propionate]",IC50,[10],21.4 µM
same,IC50,[12],18.2 µM
"CCCC(=O)O [BA, butyric acid, reference compound]",IC50,[21],1000 to 8000 µM
same,IC50,[2],1300 ± 113 µM
same,IC50,[6],8000 ± 546 µM
same,IC50,[7],5540 µM
same,IC50,[8],7170 ± 2030 µM
"CCC(=O)OCCN1CCN(CCCN2c3ccccc3Sc3ccc(Cl)cc32)CC1 [AN-177, Perphenazine Propionate]","induced catalepsy, SAR studies",[3]; [23],significant reduction of the induced catalepsy
same,IC50,[17],24.6 µM
same,IC50,[10],17.6 µM
same,IC50,[12],15.1 µM
same,IC50,[8],25.8 µM
